Data as given in patent US7629341B2, “Human ADAM-10 inhibitors” (Symphony Evolution, Inc., priority 2003, dated 2009).

How the values were obtained:
[1] = biological target: MMP-13 (collagenase-3) (Homo sapiens, UniProt P45452); test: In vitro metalloprotease inhibition, MMP-13; type: biochemical
[2] = biological target: T1, MMP-2 (72 kDa gelatinase, gelatinase A) (Homo sapiens, UniProt P08253); test: In vitro metalloprotease inhibition, MMP-2; type: biochemical
T1 sequence (P08253 110-660): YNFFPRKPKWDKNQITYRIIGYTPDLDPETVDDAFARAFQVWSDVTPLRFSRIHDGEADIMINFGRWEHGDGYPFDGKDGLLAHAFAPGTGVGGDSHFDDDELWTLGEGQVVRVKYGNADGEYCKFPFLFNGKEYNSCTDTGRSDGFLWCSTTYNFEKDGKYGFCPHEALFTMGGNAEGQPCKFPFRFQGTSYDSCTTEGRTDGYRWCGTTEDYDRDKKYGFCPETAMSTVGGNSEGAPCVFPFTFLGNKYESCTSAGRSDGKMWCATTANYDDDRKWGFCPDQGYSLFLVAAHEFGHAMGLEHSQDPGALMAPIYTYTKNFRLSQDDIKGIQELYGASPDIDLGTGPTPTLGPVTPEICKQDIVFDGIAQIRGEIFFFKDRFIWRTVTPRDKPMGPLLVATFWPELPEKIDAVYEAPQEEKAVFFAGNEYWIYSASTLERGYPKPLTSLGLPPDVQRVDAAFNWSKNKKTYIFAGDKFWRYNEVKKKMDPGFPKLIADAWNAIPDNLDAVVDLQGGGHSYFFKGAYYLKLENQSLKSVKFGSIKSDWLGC

[3] = biological target: T2, ADAM-10 (UniProt O14672); test: ADAM-10 enzyme assay, cleavage of a fluorogenic 10-residue peptide; type: biochemical, mouse or human (mADAM-10 or hADAM-10); conditions: in vitro;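 also: mouse or human ADAM-10 at 5 nM active enzyme, pH 8.0 HEPES buffer with CaCl2 and NP-40, compounds titrated 100 µM down to 0.5 nM, fluorescence read after 16 h at room temperature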
T2 sequence (O14672 1-748): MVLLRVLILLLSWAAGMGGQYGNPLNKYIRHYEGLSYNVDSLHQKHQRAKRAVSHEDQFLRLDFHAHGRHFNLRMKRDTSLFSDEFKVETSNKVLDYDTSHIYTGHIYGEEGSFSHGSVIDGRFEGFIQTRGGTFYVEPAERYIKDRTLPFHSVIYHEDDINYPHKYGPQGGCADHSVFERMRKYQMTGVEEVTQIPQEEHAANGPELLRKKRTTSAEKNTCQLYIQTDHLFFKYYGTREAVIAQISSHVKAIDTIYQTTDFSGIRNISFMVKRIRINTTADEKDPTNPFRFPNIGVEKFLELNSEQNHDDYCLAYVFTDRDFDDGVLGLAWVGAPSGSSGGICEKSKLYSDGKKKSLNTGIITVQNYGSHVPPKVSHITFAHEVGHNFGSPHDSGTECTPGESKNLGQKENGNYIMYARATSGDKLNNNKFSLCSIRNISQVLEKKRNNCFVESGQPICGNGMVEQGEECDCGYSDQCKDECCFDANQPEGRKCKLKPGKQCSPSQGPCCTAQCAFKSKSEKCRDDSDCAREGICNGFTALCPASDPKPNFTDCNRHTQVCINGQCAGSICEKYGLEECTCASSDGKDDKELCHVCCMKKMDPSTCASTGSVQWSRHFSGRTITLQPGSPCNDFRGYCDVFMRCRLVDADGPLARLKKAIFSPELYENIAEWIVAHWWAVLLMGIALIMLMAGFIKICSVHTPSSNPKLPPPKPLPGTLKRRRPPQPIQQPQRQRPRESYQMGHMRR

[4] = biological target: T3, MMP-1 (Fibroblast collagenase) (Homo sapiens, UniProt P03956); test: In vitro metalloprotease inhibition, MMP-1; type: biochemical
T3 sequence (P03956 100-469): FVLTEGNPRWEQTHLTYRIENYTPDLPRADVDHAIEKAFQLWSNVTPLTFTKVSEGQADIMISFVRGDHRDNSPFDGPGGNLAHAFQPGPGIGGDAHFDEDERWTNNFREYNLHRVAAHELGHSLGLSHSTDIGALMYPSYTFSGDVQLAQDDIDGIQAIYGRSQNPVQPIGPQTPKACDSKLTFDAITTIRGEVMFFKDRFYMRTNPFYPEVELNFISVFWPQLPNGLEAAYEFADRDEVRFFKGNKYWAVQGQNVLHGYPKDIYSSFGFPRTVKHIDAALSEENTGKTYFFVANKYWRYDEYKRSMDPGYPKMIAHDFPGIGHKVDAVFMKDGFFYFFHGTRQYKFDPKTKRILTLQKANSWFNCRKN
Text: (§1) Blank cells indicate lack of data only.

[5] = biological target: MMP-3 (Stromelysin-1) (Homo sapiens, UniProt P08254); test: In vitro metalloprotease inhibition, MMP-3; type: biochemical
Text: as §1

Sequence of MMP-3 (Stromelysin-1) (P08254 100-477, species assumed): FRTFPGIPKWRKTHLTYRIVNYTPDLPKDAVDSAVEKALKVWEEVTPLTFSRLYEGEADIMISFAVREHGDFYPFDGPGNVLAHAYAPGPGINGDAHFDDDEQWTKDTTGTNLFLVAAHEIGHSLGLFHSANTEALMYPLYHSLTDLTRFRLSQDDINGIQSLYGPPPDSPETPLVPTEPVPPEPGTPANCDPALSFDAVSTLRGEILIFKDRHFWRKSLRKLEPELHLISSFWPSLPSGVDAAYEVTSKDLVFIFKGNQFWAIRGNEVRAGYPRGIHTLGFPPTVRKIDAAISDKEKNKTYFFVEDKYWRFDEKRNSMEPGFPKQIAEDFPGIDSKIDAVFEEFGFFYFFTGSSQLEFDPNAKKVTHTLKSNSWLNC

Row | Compound | IC50 [1] [nM] | IC50 [2] [nM] | IC50 [3] [nM] | IC50 [4] [nM] | IC50 [5] [nM]
1 | O=C(NO)[C@H]1CN(C(=O)Cc2cccnc2)CCN1S(=O)(=O)c1cc(F)c(Oc2ccc(Cl)cc2)c(F)c1 [Entry 47] | < 50 | < 50 | < 50 | > 20000 | 50 to 1000
2 | COCCOC(=O)N1CCN(S(=O)(=O)c2cc(F)c(Oc3ccccc3)c(F)c2)[C@@H](C(=O)NO)C1 [Entry 40] | < 50 | < 50 | < 50 | 1000 to 20000 | 50 to 1000
3 | CN1CCN(CCS(=O)(=O)N2CCN(S(=O)(=O)c3cc(F)c(Oc4ccc(Cl)cc4)c(F)c3)[C@@H](C(=O)NO)C2)CC1 [Entry 55] | < 50 | < 50 | < 50 | 1000 to 20000 | 50 to 1000
4 | CNC(=O)CN1CCN(S(=O)(=O)c2cc(F)c(Oc3ccc(Cl)cc3)c(F)c2)[C@@H](C(=O)NO)C1 [Entry 19] | < 50 | < 50 | < 50 | > 20000 | 50 to 1000
5 | CCCC(CCC)C(=O)N1CCN(S(=O)(=O)c2cc(F)c(Oc3ccc(Cl)cc3)c(F)c2)[C@@H](C(=O)NO)C1 [Entry 44] | 50 to 1000 | < 50 | < 50 | > 20000 | 1000 to 20000
6 | O=C(CCl)NC(=O)N1CCN(S(=O)(=O)c2cc(F)c(Oc3ccc(Cl)cc3)c(F)c2)[C@@H](C(=O)NO)C1 [Entry 33] | < 50 | < 50 | < 50 | 1000 to 20000 | 50 to 1000
7 | COCCOC(=O)N1CCN(S(=O)(=O)c2ccc(Oc3ccc(F)cc3)c(F)c2)[C@@H](C(=O)NO)C1 [Entry 3] | < 50 | < 50 | < 50 | 50 to 1000 | 1000 to 20000
8 | COCCOC(=O)N1CCN(S(=O)(=O)c2ccc(Oc3ccc(Cl)cc3)c(F)c2)[C@@H](C(=O)NO)C1 [Entry 4] | < 50 | < 50 | < 50 | 50 to 1000 | < 50
9 | CCOC(=O)N1CCN(S(=O)(=O)c2cc(F)c(Oc3ccc(F)cc3)c(F)c2)[C@@H](C(=O)NO)C1 [Entry 13] | < 50 | < 50 | < 50 | 1000 to 20000 | 50 to 1000
10 | CS(=O)(=O)N1CCN(S(=O)(=O)c2cc(F)c(Oc3ccc(Cl)cc3)c(F)c2)[C@@H](C(=O)NO)C1 [Entry 28] | < 50 | < 50 | < 50 | 50 to 1000 | 50 to 1000
11 | CCOC(=O)N1CCN(CCS(=O)(=O)N2CCN(S(=O)(=O)c3cc(F)c(Oc4ccc(Cl)cc4)c(F)c3)[C@@H](C(=O)NO)C2)CC1 [Entry 56] | < 50 | < 50 | < 50 | 1000 to 20000 | 50 to 1000
12 | COCCOC(=O)N1CCN(S(=O)(=O)c2ccc(Oc3ccc(C#N)cc3)c(F)c2)[C@@H](C(=O)NO)C1 [Entry 5] | < 50 | < 50 | < 50 | 50 to 1000 | 50 to 1000
13 | O=C(NO)[C@H]1CN(C(=O)c2ccc(-c3ccccc3)cc2)CCN1S(=O)(=O)c1cc(F)c(Oc2ccc(Cl)cc2)c(F)c1 [Entry 51] | 50 to 1000 | 50 to 1000 | 50 to 1000 | 1000 to 20000 | 1000 to 20000
14 | O=C(NO)[C@H]1CN(C(=O)NCCN2CCCC2)CCN1S(=O)(=O)c1cc(F)c(Oc2ccc(Cl)cc2)c(F)c1 [Entry 17] | < 50 | < 50 | < 50 | 1000 to 20000 | 50 to 1000
